Marks after values point to notes of the source that are not given here.
Tests used:
[1] = not fitted: fixed to the value determined for GdHPADO3A ref 7; cited from earlier work
[2] = Stability and protonation constants of Zn^II complexes by pH potentiometry; assay type: physicochemical
Source text: The metal complexes of biomedical interest must show a high in vivo stability, which includes high thermodynamic stability and kinetic inertness to allow targeting applications and to avoid possible toxic effects derived by metal ion and ligand release via transmetalation or transchelation reactions.[2],[3],[13] The protonation constants of L2 as well as the stability and the protonation constants of GdL2 and those of the most important endogenous divalent metal complexes (Ca^II-, Zn^II-, and Cu^II) were determined by pH potentiometry (Table 1 and Table S1). In the case of GdL1, we were interested in determining the dissociation constant of the hydroxyl group that was measured also by pH potentiometry (Table 1). Experimental details and the definitions and equations used for the evaluation of the equilibrium and kinetic data are summarized in the SI.
The stability and protonation constants of Ca^2+, Zn^2+, and Cu^2+ complexes formed with the L1 ligand were determined by pH potentiometric titration. The metal-to-ligand concentration ratio was 1:1 (the concentration of the ligand was generally 0.002 M). The protonation constants of the GdL1 and GdL2 complexes were determined using pH potentiometry by titrating the preprepared complexes from pH = 3.0 to pH = 12 for GdL2 and from pH = 4.0 to pH = 12 for GdL1 with 0.2 M NaOH. The stability constants of GdL2 were determined by the “out-of-cell” technique because of the slow formation reaction. The pH range of the complexation equilibria and the time needed to reach the equilibria were determined by relaxometry for the formation of GdL2. […] For the calculation of the stability constants of GdL2, besides the protonation constants of ligands, the stability constants of the diprotonated *Gd(H2L2) out-of-cage complexes (considered as intermediates) were also used as fixed values, which were calculated from the pH potentiometric titration curve of the Gd^3+–L2 system obtained in the pH range 1.7–4.0.
For the pH measurements and titrations, the Metrohm 888 Titrando titration workstation Metrohm-6.0234.110 combined electrode was used. […] For the calculation of [H^+] from the measured pH values, the method proposed by Irving et al. was used as follows.[34] […] The differences (A) between the measured (pHread) and calculated (−log[H^+]) pH values were used to obtain the equilibrium H^+ concentration from the pH values measured in the titration experiments (A = 0.024). […]
The stability and protonation constants of CaII-, ZnII-, CuII- and GdIII-complexes of L2, expressed by Eqs. (S2) and (S3), were determined by pH-potentiometry and spectrophotometry at 25 °C in 0.15 M […]
where i=0, 1, 2, 3. […] The stability constant of GdL2 was calculated from the equilibrium data obtained by the “out-of-cell” technique due to the slow complexation reaction. […]

Row | SMILES | τM [1] | ZnH2L (log K) ([2]; 0.15 M NaCl, 25 °C) | ZnH3L (log K) ([2]; 0.15 M NaCl, 25 °C) | ZnHL (log K, protonation constant of the complex) ([2]; 0.15 M NaCl, 25 °C) | ZnL (log K, stability constant) ([2]; I = 0.15 M NaCl, 298 K)
1 | O=C([O-])CN1CCN(CC(=O)[O-])CCN(CC(O)C(=O)O)CCN(CC(=O)[O-])CC1.[Gd+3] (centres unmarked) [GdL2] | 20 ^c ns |  |  |  | 
2 | O=C(O)CN1CCN(CC(=O)O)CCN(C[C@@H](O)C(=O)O)CCN(CC(=O)O)CC1 [L2, (R)2,2′,2″-(10-(2-Carboxy-2-hydroxyethyl)-1,4,7,10-tetraazacyclododecane-1,4,7-triyl) Triacetic Acid] |  | 3.32 (3) | 2.29 (5) | 3.86 (5) | 17.81 (6)

Source: publication PMC8769378, “Underlining the Importance of Peripheral Protic Functional Groups to Enhance the Proton Exchange of Gd-Based MRI Contrast Agents” (Inorganic Chemistry, 2021)
